Measurements: article PMC11046469, “Leveraging a Phage-Encoded Noncanonical Amino Acid: A Novel Pathway to Potent and Selective Epigenetic Reader Protein Inhibitors” (ACS Central Science, 2024)
Where a SMILES comes first, the peptide text is derived from it. The star is where a group is joined. Oxazole(5-CO) = O=C(c1cnco1)*; Crotonyl(E) = C/C=C/C(=O)*; 2Furoyl = O=C(c1ccco1)*; Butyryl = CCCC(=O)*

Target: T1, AF9 YEATS (His-AF9) (Homo sapiens, UniProt P42568)
T1 construct: His-AF9 (aa 1-149, EpiCypher); purchased EpiCypher
T1 sequence (P42568 1-149): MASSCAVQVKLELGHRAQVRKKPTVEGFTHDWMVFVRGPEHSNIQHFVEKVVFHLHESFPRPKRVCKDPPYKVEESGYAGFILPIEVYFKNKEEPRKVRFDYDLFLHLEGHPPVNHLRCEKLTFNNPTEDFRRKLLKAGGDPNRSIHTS
Assay: Biolayer interferometry (BLI) binding to AF9 YEATS
Protocol: These potent inhibitors were then tested to confirm their selectivity for ENL YEATS over AF9 YEATS since the two YEATS domains share high sequence and structure homology. One potential of using ncAA-containing phage display for active site-directed ligand search is the possibility of amino acids flanking the ncAA in a selected peptide to selectively engage the target over a close homologue. We wanted to validate this potential as well. Selective targeting of ENL YEATS is also preferred in leukemia interventions as it plays a pivotal role in the progression and maintenance of several AMLs and poses minimal harm to normal hematopoietic stem cells upon inhibition. […] We propose that the selectivity arises from the peptide residues interacting with surface areas adjacent to the active site of ENL YEATS. […] Similarly, BLI analyses were conducted to examine preferential binding of inhibitors to ENL YEATS. […] Two previous publications have documented peptide-based YEATS inhibitors featuring alkylated lysine residues.[42],[43] […]
Biolayer Interferometry to Validate ENL Ligands:
His-ENL, His-AF9 (aa 1-149, EpiCypher), His-GAS41 (aa 15-160, EpiCypher), and YEATS2-His (aa 200-345, EpiCypher) were reconstituted in water and diluted into assay buffer (20mM Tris, 300 mM NaCl, pH 7.9) for immobilization onto Octet Ni-NTA biosensors (Sartorius). Lyophilized peptides were dissolved in DMF and diluted to designated concentrations in assay buffer. Biolayer interferometry assays were performed in 96 well plates (GreinerBio-One, polypropylene, flat-bottom) using an Octet Red96 System (Sartorius). Wells were filled with 200 μL of assay buffer, blocking buffer (assay buffer + 0.1% BSA), protein solution, peptide solution, regeneration solution, and reload solution. For immobilization, His-tagged proteins were immobilized onto Ni-NTA sensors at 20 for 600 s. Sensors were then dipped into blocking buffer for 180 s, assay […] buffer for 300 s, peptide solution for 300 s, and back to assay buffer for 300 s. If multiple samples were tested, Ni-NTA sensors can be reconditioned in regeneration (10 mM glycine, pH 1.7) solution followed by reload solution (10 mM NiCl2) for 30 and 60 s, respectively. Measurements were carried out at 30 °C. Data were analyzed within the ForteBio Data Analysis software. […]
The AlphaScreen assay was carried out in 384-well plates. […] AlphaScreen-signals were detected by a multi-mode microplate reader (BioTeK Synergy Neo2) equipped with an Alpha-laser (PerkinElmer). The KD value was determined from the plot using nonlinear regression of variable slope (four parameters) and curve fitting performed in GraphPad Prism. […]
The AlphaScreen assay conditions are essential the same as the previous described. […] IC50 values were determined from the plot using […]

SMILES | Kd [µM]
C/C=C/C(=O)NCCCC[C@H](NC(=O)[C@H](Cc1ccc(O)cc1)NC(=O)[C@H](CS)NC(=O)[C@H](Cc1ccc(O)cc1)NC(=O)[C@@H](NC(=O)[C@H](CC(=O)O)NC(=O)[C@@H](N)Cc1ccc(O)cc1)C(C)C)C(N)=O [ENL-S1c] (H-YDVYCYK(Crotonyl(E))-NH2) | 0.147
CC(C)[C@H](NC(=O)[C@H](CC(=O)O)NC(=O)[C@@H](N)Cc1ccc(O)cc1)C(=O)N[C@@H](Cc1ccc(O)cc1)C(=O)N[C@@H](CS)C(=O)N[C@@H](Cc1ccc(O)cc1)C(=O)N[C@@H](CCCCNC(=O)c1cnco1)C(N)=O [ENL-S1o] (H-YDVYCYK(Oxazole(5-CO))-NH2) | 0.0551
CCCC(=O)NCCCC[C@H](NC(=O)[C@H](Cc1ccc(O)cc1)NC(=O)[C@H](CS)NC(=O)[C@H](Cc1ccc(O)cc1)NC(=O)[C@@H](NC(=O)[C@H](CC(=O)O)NC(=O)[C@@H](N)Cc1ccc(O)cc1)C(C)C)C(N)=O [ENL-S1] (H-YDVYCYK(Butyryl)-NH2) | 0.205
CC(C)[C@H](NC(=O)[C@H](CC(=O)O)NC(=O)[C@@H](N)Cc1ccc(O)cc1)C(=O)N[C@@H](Cc1ccc(O)cc1)C(=O)N[C@@H](CS)C(=O)N[C@@H](Cc1ccc(O)cc1)C(=O)N[C@@H](CCCCNC(=O)c1ccco1)C(N)=O [ENL-S1f] (H-YDVYCYK(2Furoyl)-NH2) | 0.144
